The source of these data is patent US5593985A, “Cephalosporin compounds” (priority 1994, dated 1997).

The structures appear in SMILES notation. ≈ marks a conversion by molar mass, not a printed value. Like-named read-outs stand apart in the source and are kept apart here.

Data set [1] has as its system Streptococcus pyogenes A 308. Nature of the data set: MIC, standard strain 1. Format: cell-based. To be noted: read-out: Minimal Inhibitory Concentration(MIC). The protocol: (§1) In order to illustrate antibiotic effectiveness of the compounds of the present invention, the minimal inhibitory concentrations (MIC's) of the representative compounds were determined against standard strains and compared with ceftazidime and cefpirome, which were used as control compounds.
(§2) The MIC values were taken by employing a two-fold dilution method: that is, two-fold serial dilutions of each of the test compounds were made from initial concentration of […]; each 1.5 ml of them was dispersed in 13.5 ml of Muller Hinton agar medium to adjust to […]; the standard test strain which had the concentration of 10^7 CFU/ml was inoculated by medium;and these were incubated at 37° C. for 18 hours.
(§3) The test used twenty kinds of standard test strains which induced urinary tract infections, respiratory organ infections, skin soft tissue infections, plasma infections, gastrointestinal infections, central nervous system infections, most of which produce β-lactamase. The standard test strains used are as follows:
1. Streptococcus pyogenes A 308

Data set [2] deals with Pseudomonas aeruginosa 1592 E. Put plainly: MIC, standard strain 13. The format is cell-based. Particulars: read-out: Minimal Inhibitory Concentration(MIC). The protocol: as §1, §2, §3
13. Pseudomonas aeruginosa 1592 E

In data set [3] the test system is Staphylococcus aureus 503. Nature of the data set: MIC, standard strain 6. Format: cell-based. Particulars: read-out: Minimal Inhibitory Concentration(MIC). The protocol:
as §1, §2, §3
6. Staphylococcus aureus 503

Data set [4] has as its system Salmonella typhimurium. Put plainly: MIC, standard strain 16. Format: cell-based. Particulars: Salmonella enterica, read-out: Minimal Inhibitory Concentration(MIC). How it is done: as §1, §2, §3
16. Salmonella typhimurium

The test system of data set [5] is Escherichia coli TEM. Nature of the data set: MIC, standard strain 10. Format: cell-based. To be noted: 18 h, read-out: Minimal Inhibitory Concentration(MIC). How it is done: as §1, §2
(§4) The test used twenty kinds of standard test strains which induced urinary tract infections, respiratory organ infections, skin soft tissue infections, plasma infections, gastrointestinal infections, central nervous system infections, most of which produce β-lactamase.

Data set [6] concerns Streptococcus faecium 8b. Put plainly: MIC, standard strain 3. Particulars: Enterococcus faecium, read-out: Minimal Inhibitory Concentration(MIC). The format is cell-based. How it is done:
as §1, §2, §3
3. Streptococcus faecium 8b

For data set [7], the system named is Escherichia coli DC 0. Nature of the data set: MIC, standard strain 8. Format: cell-based. Particulars: DC0, E. coli DC 0, two-fold dilution, Muller Hinton agar, 10^7 CFU/ml, 37° C., 18 hours, read-out: Minimal Inhibitory Concentration(MIC). The protocol:
as §1, §2, §4

The nature of data set [8]: acute toxicity test. Particulars: in vivo; acute toxicity, intravenous injection.
For data set [9], the system named is Escherichia coli 0 55. Put plainly: MIC, standard strain 7. Format: cell-based. Particulars: 055, E. coli 0 55, two-fold dilution, Muller Hinton agar, 10^7 CFU/ml, 37° C., 18 hours, read-out: Minimal Inhibitory Concentration(MIC). The protocol:
as §1, §2, §4

In data set [10] the test system is Pseudomonas aeruginosa 9.027. Nature of the data set: MIC, standard strain 12. Format: cell-based. To be noted: read-out: Minimal Inhibitory Concentration(MIC). The protocol: as §1, §2, §3
12. Pseudomonas aeruginosa 9.027

In data set [11] the test system is Klebsiella aerogenes 1552 E. Put plainly: MIC, standard strain 18. Format: cell-based. To be noted: read-out: Minimal Inhibitory Concentration(MIC). The protocol:
as §1, §2, §3
18. Klebsiella aerogenes 1552 E

For data set [12], the system named is Enterobacter cloacae 1321 E. Put plainly: MIC, standard strain 20. Particulars: read-out: Minimal Inhibitory Concentration(MIC). The format is cell-based. How it is done:
as §1, §2, §3
20. Enterobacter cloacae 1321 E

Data set [13] has as its system Escherichia coli DC 2. Put plainly: MIC, standard strain 9. Particulars: DC2, E. coli DC 2, two-fold dilution, Muller Hinton agar, 10^7 CFU/ml, 37° C., 18 hours, read-out: Minimal Inhibitory Concentration(MIC). The format is cell-based. How it is done: as §1, §2, §4
The subject of data set [14] is Escherichia coli 1507 E. Put plainly: MIC, standard strain 11. To be noted: read-out: Minimal Inhibitory Concentration(MIC). Format: cell-based. The protocol:
as §1, §2, §4

In data set [15] the test system is MRSA(Yonsei Univ.). Nature of the data set: MIC, clinically separated strains. The format is cell-based. How it is done:
as §2

Data set [16] has as its system Pseudomonas aeruginosa 1771. Nature of the data set: MIC, standard strain 14. Format: cell-based. Particulars: read-out: Minimal Inhibitory Concentration(MIC). How it is done: as §1, §2, §3
14. Pseudomonas aeruginosa 1771

In data set [17] the test system is Staphylococcus aureus SG 511. Nature of the data set: MIC, standard strain 4. Format: cell-based. Particulars: SG511, 18 h, read-out: Minimal Inhibitory Concentration(MIC). The protocol: as §1, §2, §3
4. Staphylococcus aureus SG 511

For data set [18], the system named is Streptococcus pyogenes A 77. Put plainly: MIC, standard strain 2. Particulars: read-out: Minimal Inhibitory Concentration(MIC). Format: cell-based. How it is done: as §1, §2, §3
2. Streptococcus pyogenes A 77

The test system of data set [19] is Pseudomonas aeruginosa 1771M. Nature of the data set: MIC, standard strain 15. The format is cell-based. Particulars: 18 h, read-out: Minimal Inhibitory Concentration(MIC). How it is done: as §1, §2, §3
15. Pseudomonas aeruginosa 1771M

Data set [20] relates to Staphylococcus aureus 285. Put plainly: MIC, standard strain 5. The format is cell-based. Particulars: read-out: Minimal Inhibitory Concentration(MIC). How it is done: as §1, §2, §3
5. Staphylococcus aureus 285

Data set [21] concerns Enterobacter cloacae P 99. Nature of the data set: MIC, standard strain 19. The format is cell-based. Particulars: P99, 18 h, read-out: Minimal Inhibitory Concentration(MIC). The protocol:
as §1, §2, §3
19. Enterobacter cloacae P 99

For data set [22], the system named is Staphylococcus. Particulars: compared with DQ-2556; cited from earlier work.
In data set [23] the test system is Pseudomonas. Particulars: compared with DQ-2556 or ceftazidime; cited from earlier work.
The mark [24] stands for this setting: P. aeruginosa 1592 E, two-fold dilution, Muller Hinton agar, 10^7 CFU/ml, 37° C., 18 hours.
The mark [25] stands for this setting: Staphylococcus aureus, S. aureus 503, two-fold dilution, Muller Hinton agar, 10^7 CFU/ml, 37° C., 18 hours.
The mark [26] stands for this setting: S. faecium 8b, two-fold dilution, Muller Hinton agar, 10^7 CFU/ml, 37° C., 18 hours.
The mark [27] stands for this setting: Pseudomonas aeruginosa, P. aeruginosa 9.027, two-fold dilution, Muller Hinton agar, 10^7 CFU/ml, 37° C., 18 hours.
The mark [28] stands for this setting: K. aerogenes 1552 E, two-fold dilution, Muller Hinton agar, 10^7 CFU/ml, 37° C., 18 hours.
The mark [29] stands for this setting: E. cloacae 1321 E, two-fold dilution, Muller Hinton agar, 10^7 CFU/ml, 37° C., 18 hours.
Where [30] appears, read: E. coli 1507 E, two-fold dilution, Muller Hinton agar, 10^7 CFU/ml, 37° C., 18 hours.
Where [31] appears, read: Pseudomonas aeruginosa, P. aeruginosa 1771, two-fold dilution, Muller Hinton agar, 10^7 CFU/ml, 37° C., 18 hours.
[32] abbreviates: A77, S. pyogenes A 77, two-fold dilution, Muller Hinton agar, 10^7 CFU/ml, 37° C., 18 hours.
The mark [33] stands for this setting: Staphylococcus aureus, S. aureus 285, two-fold dilution, Muller Hinton agar, 10^7 CFU/ml, 37° C., 18 hours.

By LD50 is commonly meant the dose at which mortality reaches 50%. Take `CO/N=C(\C(=O)N[C@@H]1C(=O)N2C(C(=O)[O-])=C(C[n+]3ccc(C(N)=S)c4c3CCC4)CS[C@H]12)c1csc(N)n1` [Example 5, 7-β-[(Z)-2-(2-aminothiazol-4-yl)-2-methoxyiminoacetamido]-3-[(2,3-cyclopenteno-4-thiocarbamoyl-1-pyridinium)methyl]-3-cephem-4-carboxylate]: the MIC in data set [1] (A308, 18 h) was determined as 4 µg/mL (≈ 6.97 µM); in data set [2] (setting [24]), 3120 µg/mL (≈ 5450 µM); in data set [3] (setting [25]), 391 µg/mL (≈ 682 µM); in data set [4] (S. typhimurium, two-fold dilution, Muller Hinton agar, 10^7 CFU/ml, 37° C., 18 hours), 49 µg/mL (≈ 85.4 µM); in data set [5], 98 µg/mL (≈ 171 µM); in [6] (setting [26]) it was 12.5 mg/mL (≈ 21800 µM). In addition, the MIC turned out to be 98 µg/mL (≈ 171 µM) in data set [7]; 49 µg/mL (≈ 85.4 µM) in [9]; 6250 µg/mL (≈ 10900 µM) in data set [10] (setting [27]); 49 µg/mL (≈ 85.4 µM) in data set [11] (setting [28]); 13 µg/mL (≈ 22.7 µM) in [12] (setting [29]); 25 µg/mL (≈ 43.6 µM) in data set [13]. The MIC in data set [14] (setting [30]) came to 98 µg/mL (≈ 171 µM); in [16] (setting [31]) it was 1560 µg/mL (≈ 2720 µM); in [17], 781 µg/mL (≈ 1360 µM); in [18] (setting [32]) it was 2 µg/mL (≈ 3.49 µM); in data set [19], 391 µg/mL (≈ 682 µM); in data set [20] (setting [33]), 1560 µg/mL (≈ 2720 µM). The MIC in data set [21] came to 6.25 mg/mL (≈ 10900 µM). The molecule also displayed a median lethal dose (LD50) in data set [8] of more than 3000 mg/kg. Further, the “antibiotic activities against MRSA(Yonsei Univ.), in words” value in [15] was “unexpectedly potent antibiotic activities”.
Regarding `CO/N=C(\C(=O)N[C@@H]1C(=O)N2C(C(=O)[O-])=C(C[n+]3ccc(-c4nc(C)cs4)c4c3CCC4)CS[C@H]12)c1csc(N)n1` [Example 25, 7-β-[(Z)-2-(2-aminothiazol-4-yl)-2-methoxyiminoacetamido]-3-[(2,3-cyclopenteno-4-(4-methylthiazol-2-yl)-1-pyridinium)methyl]-3-cephem-4-carboxylate], the MIC in [1] (A308, S. pyogenes A 308, two-fold dilution, Muller Hinton agar, 10^7 CFU/ml, 37° C., 18 hours) came out at 4 µg/mL (≈ 6.54 µM); in [2] (setting [24]), 50000 µg/mL (≈ 81700 µM); in data set [3] (setting [25]), 195 µg/mL (≈ 319 µM); in [4] (TYPHIMURIUM, 18 h) it was 391 µg/mL (≈ 639 µM); in data set [5] it was 391 µg/mL (≈ 639 µM); in [6] (setting [26]) it was 12.5 mg/mL (≈ 20400 µM). For the same molecule, the MIC is 25 µg/mL (≈ 40.9 µM) in data set [7]; 195 µg/mL (≈ 319 µM) in data set [9]; 100000 µg/mL (≈ 163000 µM) in data set [10] (setting [27]); 781 µg/mL (≈ 1280 µM) in [11] (setting [28]); 98 µg/mL (≈ 160 µM) in [12] (setting [29]); 25 µg/mL (≈ 40.9 µM) in data set [13]. In addition, the MIC in data set [14] (setting [30]) was determined as 781 µg/mL (≈ 1280 µM); in [16] (setting [31]), 50000 µg/mL (≈ 81700 µM); in data set [17], 391 µg/mL (≈ 639 µM); in data set [18] (setting [32]), 2 µg/mL (≈ 3.27 µM); in data set [19], 1560 µg/mL (≈ 2560 µM); in [20] (setting [33]), 781 µg/mL (≈ 1280 µM). Also, in [21], the MIC worked out at 25 mg/mL (≈ 40900 µM).
Regarding `CC(C)(O/N=C(\C(=O)N[C@@H]1C(=O)N2C(C(=O)[O-])=C(C[n+]3ccccc3)CS[C@H]12)c1csc(N)n1)C(=O)O` [ceftazidime, reference compound], the MIC stood at 98 µg/mL (≈ 179 µM) in [1] (A308, 18 h); 781 µg/mL (≈ 1430 µM) in [2] (1592E, 18 h); 98 µg/mL (≈ 179 µM) in data set [3] (Staphylococcus aureus, 503, 18 h); 195 µg/mL (≈ 357 µM) in [4] (TYPHIMURIUM, 18 h); 195 µg/mL (≈ 357 µM) in data set [5]; 100 mg/mL (≈ 183000 µM) in [6] (8B, 18 h). Further, the MIC in data set [7] was found to be 98 µg/mL (≈ 179 µM); in data set [9], 98 µg/mL (≈ 179 µM); in data set [10] (Pseudomonas aeruginosa, 9.027, 18 h) it was 3120 µg/mL (≈ 5720 µM); in data set [11] (1552E, 18 h), 98 µg/mL (≈ 179 µM); in data set [12] (1321E, 18 h), 25 µg/mL (≈ 45.7 µM); in data set [13], 98 µg/mL (≈ 179 µM). In addition, the MIC came out at 195 µg/mL (≈ 357 µM) in [14] (1507E, 18 h); 391 µg/mL (≈ 715 µM) in [16] (Pseudomonas aeruginosa, 1771, 18 h); 12500 µg/mL (≈ 22900 µM) in [17]; 49 µg/mL (≈ 89.6 µM) in data set [18] (A77, 18 h); 98 µg/mL (≈ 179 µM) in [19]; 12500 µg/mL (≈ 22900 µM) in data set [20] (Staphylococcus aureus, 285, 18 h). In addition, in [21], the MIC is 100 mg/mL (≈ 183000 µM). For the same molecule, the “activity against Staphylococcus, in words” value in data set [22] is on record as “relatively low activity against Staphylococcus”. Moreover, the “activity against Pseudomonas, in words” value in data set [23] is “higher activity against Pseudomonas”.
